Reference: publication PMC8951032, “Study of Biological Activities and ADMET-Related Properties of Novel Chlorinated N-arylcinnamamides” (International Journal of Molecular Sciences, 2022)
≈ marks a conversion by molar mass, not a printed value. Like-named read-outs stand apart in the source and are kept apart here.

Legend:
[1] = Lipophilicity determination by RP-HPLC (log k, log D); assay type: physicochemical; details: for log k: MeOH 72%/H2O 28%; for log D6.5: MeOH 72%/acetate buffered saline pH 6.5; for log D7.4: MeOH 72%/acetate buffered saline pH 7.4
Protocol: In addition to the mentioned ADME profile, it is responsible for interactions with biological targets. Lipophilicity is recognized as one of the most important parameters influencing ADME and bioactivity and is also part, e.g., of Lipinski’s Rule of Five (Ro5). This thermodynamic parameter describing the molecule’s affinity for an aqueous or relatively lipophilic environment can be characterized by the logarithm of the partition coefficient (log P). In this study, lipophilicity was measured by reversed-phase high-performance liquid chromatography (RP-HPLC) under isocratic conditions with methanol as the organic modifier in the aqueous mobile phase and the logarithm of the capacity factor k was calculated, which is used as the lipophilicity index converted to the log P scale. In addition to the log k values, the logarithm of the distribution coefficient DpH at pH 6.5 and 7.4 was determined to clarify the behavior of the compounds under physiological conditions and possible ionization. Instead of water, a buffer of suitable pH was used as part of the mobile phase. In addition to the above-mentioned experimental methods, commercially available ChemBioDraw Ultra 13.0 and ACD/Percepta ver. 2012 programs were used to calculate the lipophilicity values of all prepared compounds.
A HPLC separation module Waters Alliance 2695 XE equipped with a Waters Dual Absorbance Detector 2486 (Waters Corp., Milford, MA, USA) was used. A chromatographic column Symmetry® C18 5 μm, 4.6 × 250 mm, Part No. W21751W016 (Waters Corp., Milford, MA, USA) was used. The HPLC separation process was monitored by Empower® 3 Chromatography Manager Software (Waters Corp.). Isocratic elution by a mixture of MeOH p.a. (72%) and H2O-HPLC Mili-Q grade (28%) as a mobile phase was used for the determination of capacity factor k. Isocratic elution by a mixture of MeOH p.a. (72%) and acetate buffered saline (pH 7.4 and pH 6.5) (28%) as a mobile phase was used for the determination of distribution coefficient expressed as D7.4 and D6.5. The total flow of the column was 1.0 mL/min, injection 20 μL, column temperature 40 °C, and sample temperature 10 °C. The detection wavelength of 210 nm was chosen. A KI methanolic solution was used for the determination of the dead times (tD). Retention times (tR) were measured in minutes. The capacity factors k were calculated according to the formula k = (tR − tD)/tD, where tR is the retention time of the solute, and tD is the dead time obtained using an unretained analyte. The distribution coefficients DpH were calculated according to the formula DpH = (tR − tD)/tD. Each experiment was repeated three times.

[2] = test system: S. aureus, MRSA, E. faecalis, VRE, M. smegmatis, M. marinum; test: In vitro antimicrobial screening, all tested strains; assay type: cell-based; details: antibacterial/antimycobacterial screening
[3] = test system: Staphylococcus aureus ATCC 29213; test: In vitro antistaphylococcal activity, microtitration broth MIC; assay type: cell-based; details: Staphylococcus aureus
[4] = test system: methicillin-resistant S. aureus (MRSA) 63718; test: as above; assay type: cell-based; details: Staphylococcus aureus
[5] = test system: methicillin-resistant S. aureus SA 630; test: as above; assay type: cell-based; details: Staphylococcus aureus
[6] = test system: methicillin-resistant S. aureus SA 3202; test: as above; assay type: cell-based; details: Staphylococcus aureus
[7] = test system: vancomycin-resistant E. faecalis (VRE) 725B; test: In vitro antienterococcal activity, microtitration broth MIC; assay type: cell-based, Enterococcus faecalis; details: 24 h

SMILES	log k [1]	log D6.5 [1]	log D7.4 [1]	antimicrobial activity (in words) [2]	MIC ([3]; ATCC29213, 24 h, S. aureus ATCC 29213, read-out: log(1/MIC [M]) SA (converted)) [M]	MIC ([3]; ATCC29213, S. aureus ATCC 29213, 24 h, read-out: MIC SA) [M]	MIC ([4]; 24 h, MRSA 63718, read-out: log(1/MIC [M]) MRSA1 (converted)) [M]	MIC ([4]; MRSA 63718, 24 h, read-out: MIC MRSA1) [M]	MIC ([5]; 24 h, MRSA SA 630, read-out: log(1/MIC [M]) MRSA2 (converted)) [M]	MIC ([5]; MRSA SA 630, 24 h, read-out: MIC MRSA2) [M]	MIC ([6]; 24 h, MRSA SA 3202, read-out: log(1/MIC [M]) MRSA3 (converted)) [M]	MIC ([6]; MRSA SA 3202, 24 h, read-out: MIC MRSA3) [M]	MIC ([7]; read-out: MIC VRE3) [M]	MIC ([7]; read-out: log(1/MIC [M]) VRE3 (converted)) [M]
O=C(/C=C/c1ccc(Cl)cc1)Nc1ccc(OC(F)(F)F)cc1Br [1r, (2E)-N-[2-Bromo-4-(trifluoromethoxy)phenyl]-3-(4-chlorophenyl)prop-2-enamide]	1.0278	1.0236	1.0284	total loss of any effect										
O=C(/C=C/c1ccc(Cl)c(Cl)c1)Nc1ccc(OC(F)(F)F)cc1Br [2r, (2E)-N-[2-Bromo-4-(trifluoromethoxy)phenyl]-3-(3,4-dichlorophenyl)prop-2-enamide]	1.2065	1.2373	1.2178	total loss of any effect										
CC1(C)S[C@@H]2[C@H](NC(=O)[C@H](N)c3ccccc3)C(=O)N2[C@H]1C(=O)O [AMP, ampicillin, reference compound]					5.75e-06 (≈ 2.01 µg/mL)	5.72e-06 (≈ 2 µg/mL)	4.57e-05 (≈ 16 µg/mL)	4.58e-05 (≈ 16 µg/mL)	> 4.57e-05	> 4.58e-05	> 4.57e-05	> 4.58e-05	5.72e-06 (≈ 2 µg/mL)	5.75e-06 (≈ 2.01 µg/mL)
